Results taken from PubChem BioAssay (NCI).
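GI50 is the concentration that inhibits growth by half. Definition used: TGI = concentration required for complete inhibition of growth.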

How the values were obtained:
Assay in all cases: NCI-60 cell line screen, 384-well format
[1] = system: MALME-3M melanoma
[2] = system: SK-OV-3 ovarian
[3] = system: KM12 colon
[4] = system: OVCAR-3 ovarian
[5] = system: UACC-62 melanoma
[6] = system: M14 melanoma
[7] = system: K-562 leukemia
[8] = system: OVCAR-5 ovarian
[9] = system: MDA-MB-435 melanoma
[10] = system: TK-10 renal
[11] = system: NCI-H322M lung
[12] = system: HOP-92 NSCLC
[13] = system: CCRF-CEM leukemia
[14] = system: NCI/ADR-RES ovarian
[15] = system: NCI-H226 lung
[16] = system: SNB-75 CNS
[17] = system: NCI-H460 NSCLC
[18] = system: U251 glioblastoma
[19] = system: A549 NSCLC
[20] = system: MCF7 breast
[21] = system: ACHN renal
[22] = system: T-47D breast
[23] = system: SF-268 CNS
[24] = system: HCC-2998 colon
[25] = system: HCT-15 colon
[26] = system: EKVX NSCLC
[27] = system: HOP-62 NSCLC
[28] = system: DU-145 prostate
[29] = system: LOX IMVI melanoma
[30] = system: SNB-19 CNS
[31] = system: RXF 393 renal
[32] = system: SW-620 colon
[33] = system: COLO 205 colon
[34] = system: SR leukemia
[35] = system: NCI-H522 lung
[36] = system: MOLT-4 leukemia
[37] = system: SF-539 CNS
[38] = system: MDA-MB-468 breast
[39] = system: SK-MEL-2 melanoma
[40] = system: OVCAR-4 ovarian
[41] = system: SF-295 CNS
[42] = system: A498 renal
[43] = system: SN12C renal
[44] = system: IGROV1 ovarian
[45] = system: 786-0 renal
[46] = system: UACC-257 melanoma
[47] = system: HL-60(TB) leukemia
[48] = system: SK-MEL-28 melanoma
[49] = system: UO-31 renal
[50] = system: MDA-MB-231 breast
[51] = system: CAKI-1 renal
[52] = system: BT-549 breast
[53] = system: SK-MEL-5 melanoma
[54] = system: RPMI-8226 leukemia
[55] = system: HCT-116 colon
[56] = system: NCI-H23 lung
[57] = system: PC-3 prostate
[58] = system: HS 578T breast

Which results are given for `COc1ccc(C(=O)CC2(O)C(=O)Nc3c(Cl)ccc(Cl)c32)cc1` (stereo unspecified)?
GI50 [1]: 13.9 µM; TGI [1]: 45.4 µM; GI50 [2]: 2.56 µM; TGI [2]: 95.6 µM; GI50 [3]: 0.467 µM; TGI [3]: 25.6 µM; GI50 [4]: 0.382 µM; TGI [4]: 1.25 µM; GI50 [5]: 0.38 µM; TGI [5]: 4.27 µM; GI50 [6]: 0.529 µM; TGI [6]: 2.57 µM; GI50 [7]: 0.354 µM; TGI [7]: 1.65 µM; GI50 [8]: 9.83 µM; TGI [8]: > 100 µM; GI50 [9]: 0.207 µM; TGI [9]: 0.431 µM; GI50 [10]: 1.36 µM; TGI [10]: > 100 µM; GI50 [11]: 5.82 µM; TGI [11]: > 100 µM; GI50 [12]: 9.02 µM; TGI [12]: 54.5 µM; GI50 [13]: 0.656 µM; TGI [13]: 1.9 µM; GI50 [14]: 0.346 µM; TGI [14]: 1.36 µM; GI50 [15]: 6.25 µM; TGI [15]: 50 µM; GI50 [16]: 2.26 µM; TGI [16]: 15.8 µM; GI50 [17]: 0.477 µM; TGI [17]: 2.48 µM; GI50 [18]: 1.13 µM; TGI [18]: 12.5 µM; GI50 [19]: 2.1 µM; TGI [19]: > 100 µM; GI50 [20]: 1.07 µM; TGI [20]: 21 µM; GI50 [21]: 7.9 µM; TGI [21]: > 100 µM; GI50 [22]: 9.17 µM; TGI [22]: 52 µM; GI50 [23]: 10.6 µM; TGI [23]: 31.3 µM; GI50 [24]: 1.8 µM; TGI [24]: 36.2 µM; GI50 [25]: 0.369 µM; TGI [25]: 14.4 µM; GI50 [26]: 3.81 µM; TGI [26]: 52 µM; GI50 [27]: 1.26 µM; TGI [27]: 47.8 µM; GI50 [28]: 2.79 µM; TGI [28]: 12.1 µM; GI50 [29]: 4.44 µM; TGI [29]: 21 µM; GI50 [30]: 2.32 µM; TGI [30]: 32.8 µM; GI50 [31]: 0.96 µM; TGI [31]: 5.08 µM; GI50 [32]: 0.452 µM; TGI [32]: > 100 µM; GI50 [33]: 0.646 µM; TGI [33]: > 100 µM; GI50 [34]: 0.113 µM; TGI [34]: 0.256 µM; GI50 [35]: 0.264 µM; TGI [35]: 0.587 µM; GI50 [36]: 0.216 µM; TGI [36]: 0.426 µM; GI50 [37]: 1.68 µM; TGI [37]: 5.35 µM; GI50 [38]: 0.215 µM; TGI [38]: 0.571 µM; GI50 [39]: 0.864 µM; TGI [39]: 3.02 µM; GI50 [40]: 8.8 µM; TGI [40]: 85.6 µM; GI50 [41]: 1.55 µM; TGI [41]: 8.41 µM; GI50 [42]: 3.72 µM; TGI [42]: 46.7 µM; GI50 [43]: 3.28 µM; TGI [43]: 20.8 µM; GI50 [44]: 2.78 µM; TGI [44]: > 100 µM; GI50 [45]: 3.61 µM; TGI [45]: 21.7 µM; GI50 [46]: 6.69 µM; TGI [46]: 21.6 µM; GI50 [47]: 0.237 µM; TGI [47]: 0.474 µM; GI50 [48]: 15.9 µM; TGI [48]: > 100 µM; GI50 [49]: 8.45 µM; TGI [49]: > 100 µM; GI50 [50]: 13.2 µM; TGI [50]: > 100 µM; GI50 [51]: 0.679 µM; TGI [51]: > 100 µM; GI50 [52]: 0.509 µM; TGI [52]: 10.9 µM; GI50 [53]: 0.663 µM; TGI [53]: 5.85 µM; GI50 [54]: 1.17 µM; TGI [54]: 2.56 µM; GI50 [55]: 0.568 µM; TGI [55]: 32.1 µM; GI50 [56]: 1.97 µM; TGI [56]: 12.1 µM; GI50 [57]: 2.27 µM; TGI [57]: > 100 µM; GI50 [58]: 1.09 µM; TGI [58]: 2.76 µM
